The assay deals with T1, hCRTH2 receptor (Homo sapiens, UniProt Q9Y5Y4).
T1 construct: expressed in transfected cells; host or cells: HEK293
T1 sequence (Q9Y5Y4 1-395): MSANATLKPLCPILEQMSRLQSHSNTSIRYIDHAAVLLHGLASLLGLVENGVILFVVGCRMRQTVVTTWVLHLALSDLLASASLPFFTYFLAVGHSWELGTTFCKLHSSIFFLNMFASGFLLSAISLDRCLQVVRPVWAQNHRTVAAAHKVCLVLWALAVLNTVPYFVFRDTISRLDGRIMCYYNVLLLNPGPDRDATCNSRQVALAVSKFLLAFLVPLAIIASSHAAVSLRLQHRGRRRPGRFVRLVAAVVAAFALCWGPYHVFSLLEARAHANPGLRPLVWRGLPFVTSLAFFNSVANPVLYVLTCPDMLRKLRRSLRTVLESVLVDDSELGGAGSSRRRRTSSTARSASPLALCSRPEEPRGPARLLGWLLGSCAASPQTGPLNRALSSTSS
The experiment in a line: Radioligand displacement assay (3H-PGD2) on hCRTH2 receptor membranes. The following applies: antagonistic activity. It counts as binding. (Displacement assays read how much labelled ligand stays bound in the presence of the test substance.)

[1] abbreviates: 3H-PGD2 displacement on HEK293-hCRTH2 membrane fragments.
Where [2] appears, read: 3H-PGD2 radioligand displacement, HEK293-hCRTH2 membranes.

These results are taken from patent US8575158B2, “1-phenyl-substituted heterocyclyl derivatives and their use as prostaglandin D2 receptor modulators” (Actelion Pharmaceuticals Ltd., priority 2010, dated 2013).

For orientation: IC50 means the point on the concentration scale where inhibition reaches its midpoint. A high value points to weaker potency in that assay. `O=C(O)COc1ccc(F)cc1[C@@H]1c2ccccc2CCN1C(=O)[C@@H]1C[C@H]1c1ccccc1` (single isomer, unassigned) [Example 29] had an IC50 under setting [1] of 7.72 nM.

In the case of `O=C(O)COc1ccc(F)cc1[C@@H]1c2ccccc2CCN1C(=O)[C@@H]1C[C@H]1c1ccccc1` (single isomer, unassigned) [Example 30], the IC50 under setting [1] was determined as 912 nM.

Take `Cc1ccccc1C1CC1C(=O)N1CCc2ccccc2C1c1cc(Cl)ccc1OCC(=O)O` (single isomer, unassigned) [Example 153, (±)-{4-Chloro-2-[2-((trans)-2-o-tolyl-cyclopropanecarbonyl)-1,2,3,4-tetrahydro-isoquinolin-1-yl]-phenoxy}-acetic acid (diastereosiomer 1)]: under setting [1], the half-maximal inhibitory concentration (IC50) was 123 nM.

Turning to `Cc1ccccc1C1CC1C(=O)N1CCc2ccccc2C1c1cc(Cl)ccc1OCC(=O)O` (single isomer, unassigned) [Example 154, (±)-{4-Chloro-2-[2-((trans)-2-o-tolyl-cyclopropanecarbonyl)-1,2,3,4-tetrahydro-isoquinolin-1-yl]-phenoxy}-acetic acid (diastereosiomer 2)], under setting [1], the half-inhibitory concentration (IC50) stood at 4.83 nM.

The molecule `O=C(O)COc1ccc(Cl)cc1C1c2ccccc2CCN1C(=O)C1CC1c1ccccc1C(F)(F)F` (single isomer, unassigned) [Example 155, (±)-(4-Chloro-2-{2-[(trans)-2-(2-trifluoromethyl-phenyl)-cyclopropanecarbonyl]-1,2,3,4-tetrahydro-iso-quinolin-1-yl}-phenoxy)-acetic acid (diatereoisomer 1)] registered an IC50 under setting [1] of 166 nM.

Turning to `O=C(O)COc1ccc(Cl)cc1C1c2ccccc2CCN1C(=O)C1CC1c1ccccc1C(F)(F)F` (single isomer, unassigned) [Example 156, (±)-(4-Chloro-2-{2-[(trans)-2-(2-trifluoromethyl-phenyl)-cyclopropanecarbonyl]-1,2,3,4-tetrahydro-iso-quinolin-1-yl}-phenoxy)-acetic acid (diatereoisomer 2)], under setting [1], the IC50 was determined as 14.2 nM.

`CC(C)[C@@H]1C[C@H]1C(=O)N1CCc2ccccc2[C@H]1c1cc(Cl)ccc1OCC(=O)O` (single isomer, unassigned) [Example 464] had an IC50 under setting [2] of 789 nM.

The molecule `CC(C)[C@@H]1C[C@H]1C(=O)N1CCc2ccccc2[C@H]1c1cc(Cl)ccc1OCC(=O)O` (single isomer, unassigned) [Example 465] returned a concentration for half-maximal inhibition (IC50) under setting [2] of 53.5 nM.

Under setting [2], `O=C(O)COc1ccc(Cl)cc1C1c2ccccc2CN1C(=O)CCn1ncc2cc(F)ccc21` (single isomer, unassigned) [Example 527, (4-Chloro-2-{2-[3-(5-fluoro-indazol-1-yl)-propionyl]-2,3-dihydro-1H-isoindol-1-yl}-phenoxy)-acetic acid] showed a half-maximal inhibitory concentration (IC50) of 8.12 nM.

`Cc1nn(CCC(=O)N2Cc3ccccc3C2c2cc(Cl)ccc2OCC(=O)O)c2cccc(F)c12` (single isomer, unassigned) [Example 528, (4-Chloro-2-{2-[3-(4-fluoro-3-methyl-indazol-1-yl)-propionyl]-2,3-dihydro-1H-isoindol-1-yl}-phenoxy)-acetic acid]: under setting [2], the concentration for half-maximal inhibition (IC50) was 33.2 nM.

In the case of `Cc1nn(CCC(=O)N2Cc3ccccc3C2c2cc(Cl)ccc2OCC(=O)O)c2cccc(Cl)c12` (single isomer, unassigned) [Example 529], the IC50 under setting [2] came out at 78 nM.

On to `Cc1nn(CCC(=O)N2Cc3ccccc3C2c2cc(Cl)ccc2OCC(=O)O)c2c(F)cccc12` (single isomer, unassigned) [Example 530], for which the IC50 under setting [2] came to 101 nM.

With `Cc1nn(CCC(=O)N2Cc3ccccc3C2c2cc(Cl)ccc2OCC(=O)O)c2cc(F)ccc12` (single isomer, unassigned) [Example 531, (4-Chloro-2-{2-[3-(6-fluoro-3-methyl-indazol-1-yl)-propionyl]-2,3-dihydro-1H-isoindol-1-yl}-phenoxy)-acetic acid], the IC50 under setting [2] was 30.9 nM.

Molecule `Cc1nn(CCC(=O)N2Cc3ccccc3C2c2cc(Cl)ccc2OCC(=O)O)c2cc(Cl)ccc12` (single isomer, unassigned) [Example 532, (4-Chloro-2-{2-[3-(6-chloro-3-methyl-indazol-1-yl)-propionyl]-2,3-dihydro-1H-isoindol-1-yl}-phenoxy)-acetic acid] came in with an IC50 under setting [2] of 40.7 nM.

In the case of `Cc1nn(CCC(=O)N2Cc3ccccc3C2c2cc(Cl)ccc2OCC(=O)O)c2ccccc12` (single isomer, unassigned) [Example 533, (4-Chloro-2-{2-[3-(3-methyl-indazol-1-yl)-propionyl]-2,3-dihydro-1H-isoindol-1-yl}-phenoxy)-acetic acid], the IC50 under setting [2] is 6.09 nM.

The molecule `O=C(O)COc1ccc(Cl)cc1C1c2ccccc2CN1C(=O)CCn1ncc2ccc(F)cc21` (single isomer, unassigned) [Example 534, (4-Chloro-2-{2-[3-(6-fluoro-indazol-1-yl)-propionyl]-2,3-dihydro-1H-isoindol-1-yl}-phenoxy)-acetic acid] returned a half-inhibitory concentration (IC50) under setting [2] of 12.9 nM.

For `O=C(O)COc1ccc(Cl)cc1C1c2ccccc2CN1C(=O)CCn1ncc2c(F)cccc21` (single isomer, unassigned) [Example 535, (4-Chloro-2-{2-[3-(4-fluoro-indazol-1-yl)-propionyl]-2,3-dihydro-1H-isoindol-1-yl}-phenoxy)-acetic acid], under setting [2], the concentration for half-maximal inhibition (IC50) turned out to be 15.1 nM.

Molecule `O=C(O)COc1ccc(Cl)cc1C1c2ccccc2CN1C(=O)CCn1ncc2cccc(Cl)c21` (single isomer, unassigned) [Example 536] returned an IC50 under setting [2] of 110 nM.

Molecule `O=C(O)COc1ccc(Cl)cc1C1c2ccccc2CN1C(=O)CCn1ncc2cccc(F)c21` (single isomer, unassigned) [Example 537, (4-Chloro-2-{2-[3-(7-fluoro-indazol-1-yl)-propionyl]-2,3-dihydro-1H-isoindol-1-yl}-phenoxy)-acetic acid] displayed a concentration for half-maximal inhibition (IC50) under setting [2] of 25.8 nM.

Regarding `Cc1nn(CCC(=O)N2Cc3ccccc3C2c2cc(Cl)ccc2OCC(=O)O)c2cccc(F)c12` (single isomer, unassigned) [Example 538, (4-Chloro-2-{2-[3-(4-fluoro-3-methyl-indazol-1-yl)-propionyl]-2,3-dihydro-1H-isoindol-1-yl}-phenoxy)-acetic acid], the concentration for half-maximal inhibition (IC50) under setting [2] was determined as 704 nM.

For the molecule `Cc1nn(CCC(=O)N2Cc3ccccc3C2c2cc(Cl)ccc2OCC(=O)O)c2cccc(Cl)c12` (single isomer, unassigned) [Example 539], under setting [2], the IC50 amounted to 235 nM.

Under setting [2], `Cc1nn(CCC(=O)N2Cc3ccccc3C2c2cc(Cl)ccc2OCC(=O)O)c2c(F)cccc12` (single isomer, unassigned) [Example 540] returned a 50% inhibitory concentration (IC50) of 633 nM.

Turning to `Cc1nn(CCC(=O)N2Cc3ccccc3C2c2cc(Cl)ccc2OCC(=O)O)c2cc(F)ccc12` (single isomer, unassigned) [Example 541, (4-Chloro-2-{2-[3-(6-fluoro-3-methyl-indazol-1-yl)-propionyl]-2,3-dihydro-1H-isoindol-1-yl}-phenoxy)-acetic acid], under setting [2], the IC50 is 865 nM.

In the case of `Cc1nn(CCC(=O)N2Cc3ccccc3C2c2cc(Cl)ccc2OCC(=O)O)c2cc(Cl)ccc12` (single isomer, unassigned) [Example 542, (4-Chloro-2-{2-[3-(6-chloro-3-methyl-indazol-1-yl)-propionyl]-2,3-dihydro-1H-isoindol-1-yl}-phenoxy)-acetic acid], under setting [2], the IC50 is 881 nM.

Take `O=C(O)COc1ccc(Cl)cc1C1c2ccccc2CN1C(=O)CCn1ncc2cc(F)ccc21` (single isomer, unassigned) [Example 543, (4-Chloro-2-{2-[3-(5-fluoro-indazol-1-yl)-propionyl]-2,3-dihydro-1H-isoindol-1-yl}-phenoxy)-acetic acid]: the IC50 under setting [2] was found to be 353 nM.

The molecule `Cc1nn(CCC(=O)N2Cc3ccccc3C2c2cc(Cl)ccc2OCC(=O)O)c2ccccc12` (single isomer, unassigned) [Example 545, (4-Chloro-2-{2-[3-(3-methyl-indazol-1-yl)-propionyl]-2,3-dihydro-1H-isoindol-1-yl}-phenoxy)-acetic acid] showed a concentration for half-maximal inhibition (IC50) under setting [2] of 982 nM.

In turn, `O=C(O)COc1ccc(Cl)cc1C1c2ccccc2CN1C(=O)CCn1ncc2ccc(F)cc21` (single isomer, unassigned) [Example 546, (4-Chloro-2-{2-[3-(6-fluoro-indazol-1-yl)-propionyl]-2,3-dihydro-1H-isoindol-1-yl}-phenoxy)-acetic acid] came in with an IC50 under setting [2] of 210 nM.

`O=C(O)COc1ccc(Cl)cc1C1c2ccccc2CN1C(=O)CCn1ncc2c(F)cccc21` (single isomer, unassigned) [Example 547, (4-Chloro-2-{2-[3-(4-fluoro-indazol-1-yl)-propionyl]-2,3-dihydro-1H-isoindol-1-yl}-phenoxy)-acetic acid] gave an IC50 under setting [2] of 272 nM.

The molecule `O=C(O)COc1ccc(Cl)cc1C1c2ccccc2CN1C(=O)CCn1ncc2cccc(Cl)c21` (single isomer, unassigned) [Example 548] showed an IC50 under setting [2] of 715 nM.

Under setting [2], `O=C(O)COc1ccc(Cl)cc1C1c2ccccc2CN1C(=O)CCn1ncc2cccc(F)c21` (single isomer, unassigned) [Example 551, (4-Chloro-2-{2-[3-(7-fluoro-indazol-1-yl)-propionyl]-2,3-dihydro-1H-isoindol-1-yl}-phenoxy)-acetic acid] returned an IC50 of 292 nM.
